In patent US20250011289A1, “1H-BENZO[B]AZEPIN-2(3H)-ONE COMPOUNDS, COMPOSITIONS AND METHODS OF TREATING CANCER” (Chengdu Anticancer Bioscience, Ltd., priority 2021, published 2025):
Where two headings read alike, the source gives them in different places.

Assays:
[1] = tested on: RPE-Neo or RPE-MYC or RPE-MYC expressing an EGFP-Histone 2B fusion protein; assay: Phenotypic screening assay (arrest in mitosis or change in DNA content, IN-Cell Analyzer); format: cell-based; conditions: compounds at 20 nM to 20 μM, analysed 24, 48 or 72 hours after initiation of treatment
Experimental: (§1) Screening was conducted as described before (Li et al. 2019). Briefly, RPE-Neo or RPE-MYC or RPE-MYC expressing an EGFP-Histone 2B fusion protein were passaged as batches of 96-well plates, 18-24 hours before exposure to the chemical compounds of the present disclosure at concentrations from 20 nM to 20 μM. At 24, 48 or 72 hours after initiation of treatment, cells were analyzed for either an arrest in mitosis or a change in DNA content by GE 1N-Cell Analyzer 2000. MTT assays of cellular proliferation were performed as previously described (Li et al. 2019).
(§2) As set forth in table 2 below, an values of greater than or equal to 1 nM and less than or equal to 1.0 μM is marked “A”; a value greater than 1.00 μM and less than or equal to 10.0 μM is marked “B”; a value greater than 10.0 μM and less than or equal to 30.0 μM is marked “C”; and a value greater than 30.0 μM and less than 1000 μM is marked “D.”

[2] = tested on: RPE-Neo or RPE-MYC cells; assay: MTT assay of cellular proliferation; format: cell-based; conditions: compounds at 20 nM to 20 μM; read-out: Min. Effective conc. for Proliferative arrest (>50%)
Experimental: Human cancer cell lines were obtained from ATCC and cultured in DMEM (Gibco, Cleveland. TN, USA) supplemented with 5% fetal bovine serum (Gibco), penicillin (100 U/mL)-streptomycin (100 μg/mL) (Gibco, Cat. No. 15140-122), 2 mM L-glutamine (Gibco, 200 mM solution, Cat. No. 25030081), and 1 mM sodium pyruvate (Gibco, 100 mM solution, Cat. No. 11360070) at 37° C. in a humidified incubator that was maintained at 5% CO2.
as §1, §2

[3] = read-out: Min. Effective conc. for Along with Cell Death
[4] = read-out: Min. Effective conc. for Mitotic Arrest (>5%)
[5] = read-out: Min. Effective conc. for Polyploidy (≥5%)

SMILES	minimal effective concentration [1, 3]	minimal effective concentration [1, 4]	minimal effective concentration [1, 5]	minimal effective concentration [2]
Cc1ccc(CN2C(=O)CC(c3nnc(C4CC4)o3)=C(Br)c3ccc(C(N)=O)cc32)cc1F [Compound 20-22, 5-bromo-4-(5-cyclopropyl-1,3,4-oxadiazol-2-yl)-1-(3-fluoro-4-methylbenzyl)-2-oxo-2,3-dihydro-1H-benzo[b]azepine-8-carboxamide]	0.001 to 1 µM	0.001 to 1 µM	0.001 to 1 µM	0.001 to 1 µM
Cc1ccc(CN2C(=O)CC(c3nnc(C4CC4)o3)=C(Br)c3ccc(OCCCN4CCOCC4)cc32)cc1F [Compound 20-23, 5-bromo-4-(5-cyclopropyl-1,3,4-oxadiazol-2-yl)-1-(3-fluoro-4-methylbenzyl)-8-(3-morpholinopropoxy)-1,3-dihydro-2H-benzo[b]azepin-2-one]	0.001 to 1 µM	0.001 to 1 µM	0.001 to 1 µM	0.001 to 1 µM
Cc1ccc(CN2C(=O)CC(c3nnc(C4CC4)o3)=C(Br)c3cccc(C)c32)cc1F [Compound 20-18, 5-bromo-4-(5-cyclopropyl-1,3,4-oxadiazol-2-yl)-1-(3-fluoro-4-methylbenzyl)-9-methyl-1,3-dihydro-2H-benzo[b]azepin-2-one]	0.001 to 1 µM	0.001 to 1 µM	0.001 to 1 µM	0.001 to 1 µM
COCCOc1ccc2c(c1)N(Cc1ccc(C)c(F)c1)C(=O)CC(c1cnco1)=C2Cl [Compound 8-9]	0.001 to 1 µM	0.001 to 1 µM	0.001 to 1 µM	0.001 to 1 µM
Cc1ccc(CN2C(=O)CC(c3nnc(C4CC4)o3)=C(Br)c3ccc(C#N)cc32)cc1F [Compound 20-11, 5-bromo-4-(5-cyclopropyl-1,3,4-oxadiazol-2-yl)-1-(3-fluoro-4-methylbenzyl)-2-oxo-2,3-dihydro-1H-benzo[b]azepine-8-carbonitrile]	0.001 to 1 µM	0.001 to 1 µM	0.001 to 1 µM	0.001 to 1 µM
Cc1ccc(CN2C(=S)CC(c3nnc(C4CC4)o3)=C(Br)c3ccccc32)cc1F [Compound 24-1, 5-bromo-4-(5-cyclopropyl-1,3,4-oxadiazol-2-yl)-1-(3-fluoro-4-methylbenzyl)-1,3-dihydro-2H-benzo[b]azepine-2-thione]	0.001 to 1 µM	0.001 to 1 µM	0.001 to 1 µM	0.001 to 1 µM
Cc1nnc(C2=C(Br)c3ccc(F)cc3N(Cc3ccc(C)c(F)c3)C(=O)C2)o1 [Compound 20-8, 5-bromo-8-fluoro-1-(3-fluoro-4-methylbenzyl)-4-(5-methyl-1,3,4-oxadiazol-2-yl)-1,3-dihydro-2H-benzo[b]azepin-2-one]	0.001 to 1 µM	0.001 to 1 µM	0.001 to 1 µM	0.001 to 1 µM
C#CC1=C(c2nnc(C3CC3)o2)CC(=O)N(Cc2ccc(C)c(F)c2)c2ccccc21 [Compound 20-32, 4-(5-cyclopropyl-1,3,4-oxadiazol-2-yl)-5-ethynyl-1-(3-fluoro-4-methylbenzyl)-1,3-dihydro-2H-benzo[b]azepin-2-one]	0.001 to 1 µM	0.001 to 1 µM	0.001 to 1 µM	0.001 to 1 µM
Cc1ccc(CN2C(=O)CC(c3nnc(C4CC4)o3)=C(Br)c3ccc(C(F)(F)F)cc32)cc1F [Compound 20-14, 5-bromo-4-(5-cyclopropyl-1,3,4-oxadiazol-2-yl)-1-(3-fluoro-4-methylbenzyl)-8-(trifluoromethyl)-1,3-dihydro-2H-benzo[b]azepin-2-one]	0.001 to 1 µM	0.001 to 1 µM	0.001 to 1 µM	0.001 to 1 µM
Cc1ccc(CN2C(=O)CC(c3nnc(C4CC4)o3)=C(Br)c3ccccc32)cc1F [Compound 20-3, 5-bromo-4-(5-cyclopropyl-1,3,4-oxadiazol-2-yl)-1-(3-fluoro-4-methylbenzyl)-1,3-dihydro-2H-benzo[b]azepin-2-one]	0.001 to 1 µM	0.001 to 1 µM	0.001 to 1 µM	0.001 to 1 µM
Cc1ccc(CN2C(=O)CC(c3nnc(C4CC4)o3)=C(Br)c3cc(F)ccc32)cc1F [Compound 20-17, 5-bromo-4-(5-cyclopropyl-1,3,4-oxadiazol-2-yl)-7-fluoro-1-(3-fluoro-4-methylbenzyl)-1,3-dihydro-2H-benzo[b]azepin-2-one]	0.001 to 1 µM	0.001 to 1 µM	0.001 to 1 µM	0.001 to 1 µM
Cc1ccc2c(c1)N(Cc1ccc(C)c(F)c1)C(=O)CC(c1nnc(C3CC3)o1)=C2Br [Compound 20-12, 5-bromo-4-(5-cyclopropyl-1,3,4-oxadiazol-2-yl)-1-(3-fluoro-4-methylbenzyl)-8-methyl-1,3-dihydro-2H-benzo[b]azepin-2-one]	0.001 to 1 µM	0.001 to 1 µM	0.001 to 1 µM	0.001 to 1 µM
Cc1cnc(C2=C(Br)c3ccccc3N(Cc3ccc(C)c(F)c3)C(=O)C2)o1 [Compound 23-1, 5-bromo-1-(3-fluoro-4-methylbenzyl)-4-(5-methyloxazol-2-yl)-1,3-dihydro-2H-benzo[b]azepin-2-one]	0.001 to 1 µM	0.001 to 1 µM	0.001 to 1 µM	0.001 to 1 µM
Cc1ccc(CN2C(=O)CC(c3cnco3)=C(Br)c3ccccc32)cc1F [Compound 8-2, 5-bromo-1-(3-fluoro-4-methylbenzyl)-4-(oxazol-5-yl)-1,3-dihydro-2H-benzo[b]azepin-2-one]	0.001 to 1 µM	0.001 to 1 µM	0.001 to 1 µM	0.001 to 1 µM
COc1ccc2c(c1)N(Cc1ccc(C)c(F)c1)C(=O)CC(c1nnc(C3CC3)o1)=C2Br [Compound 20-4, 5-bromo-4-(5-cyclopropyl-1,3,4-oxadiazol-2-yl)-1-(3-fluoro-4-methylbenzyl)-8-methoxy-1,3-dihydro-2H-benzo[b]azepin-2-one]	0.001 to 1 µM	0.001 to 1 µM	0.001 to 1 µM	0.001 to 1 µM
Cc1nnc(C2=C(Br)c3ccc(Cl)cc3N(Cc3ccc(C)c(F)c3)C(=O)C2)o1 [Compound 20-10, 5-bromo-8-chloro-1-(3-fluoro-4-methylbenzyl)-4-(5-methyl-1,3,4-oxadiazol-2-yl)-1,3-dihydro-2H-benzo[b]azepin-2-one]	0.001 to 1 µM	0.001 to 1 µM	0.001 to 1 µM	0.001 to 1 µM
Cc1ccc2c(c1)N(Cc1ccc(C)c(F)c1)C(=O)CC(c1nnc(C)o1)=C2Br [Compound 20-13, 5-bromo-1-(3-fluoro-4-methylbenzyl)-8-methyl-4-(5-methyl-1,3,4-oxadiazol-2-yl)-1,3-dihydro-2H-benzo[b]azepin-2-one]	0.001 to 1 µM	0.001 to 1 µM	0.001 to 1 µM	0.001 to 1 µM
Cc1ccc(CN2C(=O)CC(COCC3CCOC3)=C(Br)c3ccccc32)cc1F (stereo not drawn) [Compound 44-3]	0.001 to 1 µM	1 to 10 µM	0.001 to 1 µM	0.001 to 1 µM
Cc1ccc(CN2C(=O)CC(c3ccon3)=C(Br)c3ccccc32)cc1F [Compound 13-2]	0.001 to 1 µM	0.001 to 1 µM	0.001 to 1 µM	0.001 to 1 µM
Cc1ccc(CN2C(=O)CC(C=O)=C(Cl)c3ccccc32)cc1F [Compound 7-1, 5-chloro-1-(3-fluoro-4-methylbenzyl)-2-oxo-2,3-dihydro-1H-benzo[b]azepine-4-carbaldehyde]	0.001 to 1 µM	0.001 to 1 µM	0.001 to 1 µM	0.001 to 1 µM
COC1=C(c2nc(C)no2)CC(=O)N(Cc2ccc(C)c(F)c2)c2cc(Br)ccc21 [Compound 10-1, 8-bromo-1-(3-fluoro-4-methylbenzyl)-5-methoxy-4-(3-methyl-1,2,4-oxadiazol-5-yl)-1,3-dihydro-2H-benzo[b]azepin-2-one]	0.001 to 1 µM	0.001 to 1 µM	0.001 to 1 µM	0.001 to 1 µM
